From PubChem BioAssay AID248 (DTP/NCI, 2004)
Values joined by “and” are separate entries in the source; they are usually repeats but may differ in a detail not shown here. Equal values may be shown once. Inconclusive results and toxic doses are left out. No stated cut-off is given here; in the data, active means T/C of 150% or more; inactive means T/C below 125%.

System: L1210 leukemia ip in BDF1 mice, survival T/C
Assay: NCI In Vivo Anticancer Drug Screen. Data for tumor model L1210 Leukemia (intraperitoneal) in B6D2F1 (BDF1) mice
Details: endpoint: mean survival time, higher = longer survival
Procedure, shortened: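 Ratio derived from survival: compound-dosed mice over vehicle-dosed mice, all bearing a transplantable tumor.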

[1] = dose: 100.0 mg/kg/injection, schedule: Q01DX001 (ip), vehicle: other
[2] = dose: 100.0 mg/kg/injection, schedule: Q01DX009 (ip), vehicle: other
[3] = dose: 200.0 mg/kg/injection, schedule: Q01DX001 (ip), vehicle: other
[4] = dose: 200.0 mg/kg/injection, schedule: Q01DX009 (ip), vehicle: other
[5] = dose: 400.0 mg/kg/injection, schedule: Q01DX001 (ip), vehicle: other
[6] = dose: 12.5 mg/kg/injection, schedule: Q01DX009 (ip), vehicle: saline with Tween-80
[7] = dose: 25.0 mg/kg/injection, schedule: Q01DX009 (ip), vehicle: saline with Tween-80
[8] = dose: 100.0 mg/kg/injection, schedule: Q01DX001 (ip), vehicle: saline
[9] = dose: 200.0 mg/kg/injection, schedule: Q01DX001 (ip), vehicle: saline
[10] = dose: 100.0 mg/kg/injection, schedule: Q04DX003 (ip), vehicle: Klucel (hydroxypropylcellulose) (HPC)
[11] = dose: 200.0 mg/kg/injection, schedule: Q04DX003 (ip), vehicle: Klucel (hydroxypropylcellulose) (HPC)
[12] = dose: 400.0 mg/kg/injection, schedule: Q04DX003 (ip), vehicle: Klucel (hydroxypropylcellulose) (HPC)
[13] = dose: 50.0 mg/kg/injection, schedule: Q01DX009 (ip), vehicle: saline with Tween-80
[14] = dose: 100.0 mg/kg/injection, schedule: Q04DX003 (ip), vehicle: saline with Tween-80
[15] = dose: 200.0 mg/kg/injection, schedule: Q04DX003 (ip), vehicle: saline with Tween-80
[16] = dose: 25.0 mg/kg/injection, schedule: Q04DX003 (ip), vehicle: saline with Tween-80
[17] = dose: 50.0 mg/kg/injection, schedule: Q04DX003 (ip), vehicle: saline with Tween-80

Measured: T/C

CC1=CC(=O)c2ccccc2C1=O
inactive: dose: 10.0 mg/kg/injection, schedule: Q01DX015 (ip), vehicle: carboxymethylcellulose (CMC) 90 % of control | dose: 15.0 mg/kg/injection, schedule: Q01DX015 (ip), vehicle: carboxymethylcellulose (CMC) 90 % of control | dose: 20.0 mg/kg/injection, schedule: Q01DX015 (ip), vehicle: carboxymethylcellulose (CMC) 90 % of control | dose: 43.0 mg/kg/injection, schedule: Q01DX001 (ip), vehicle: carboxymethylcellulose (CMC) 97 % of control | dose: 64.0 mg/kg/injection, schedule: Q01DX001 (ip), vehicle: carboxymethylcellulose (CMC) 102 % of control | dose: 85.0 mg/kg/injection, schedule: Q01DX001 (ip), vehicle: carboxymethylcellulose (CMC) 108 % of control

Cc1[nH]c2ccccc2c1C1Cc2ccccc2N1 (configuration not stated)
inactive: [1] 97 % of control and 103 % of control | [2] 101 % of control | [3] 100 % of control and 90 % of control | [4] 101 % of control | [5] 94 % of control | dose: 400.0 mg/kg/injection, schedule: Q01DX009 (ip), vehicle: other 107 % of control

CSc1nc(N)nc2c1ncn2CCCl
inactive: dose: 100.0 mg/kg/injection, schedule: Q04DX003 (ip), vehicle: saline 103 % of control | dose: 200.0 mg/kg/injection, schedule: Q04DX003 (ip), vehicle: saline 96 % of control | dose: 400.0 mg/kg/injection, schedule: Q04DX003 (ip), vehicle: saline 97 % of control

CC(=O)CCC[CH2][Sn]([c]1ccccc1)([c]1ccccc1)[c]1ccccc1
inactive: dose: 100.0 mg/kg/injection, schedule: Q04DX002 (ip), vehicle: saline with Tween-80 102 % of control | dose: 200.0 mg/kg/injection, schedule: Q04DX002 (ip), vehicle: saline with Tween-80 91 % of control | dose: 400.0 mg/kg/injection, schedule: Q04DX002 (ip), vehicle: saline with Tween-80 97 % of control

O=CNc1ccc2c(c1)Cc1cc(Cl)ccc1-2
inactive: dose: 30.0 mg/kg/injection, schedule: Q01DX015 (ip), vehicle: carboxymethylcellulose (CMC) 97 % of control | dose: 60.0 mg/kg/injection, schedule: Q01DX015 (ip), vehicle: carboxymethylcellulose (CMC) 106 % of control | dose: 120.0 mg/kg/injection, schedule: Q01DX015 (ip), vehicle: carboxymethylcellulose (CMC) 97 % of control

N#CCc1c[nH]c2ccc(OCc3ccccc3)cc12
inactive: dose: 50.0 mg/kg/injection, schedule: Q01DX009 (ip), vehicle: other 100 % of control | [2] 94 % of control | [4] 108 % of control

N#C/C(=C\c1ccco1)c1ccc([N+](=O)[O-])cc1
inactive: dose: 6.25 mg/kg/injection, schedule: Q01DX009 (ip), vehicle: saline with Tween-80 90 % of control | [6] 90 % of control | [7] 95 % of control

O=C(OCCN1CCCCCCCC1)C(c1ccccc1)c1ccccc1
inactive: [1] 101 % of control | [3] 90 % of control | [5] 110 % of control

CCN(CC)CCSC(=O)c1ccc([N+](=O)[O-])cc1
inactive: [8] 98 % of control | [9] 104 % of control

COC1c2c(nc3ccccc3c2C#N)-c2ccccc2C1(C)C (configuration not stated)
inactive: [10] 106 % of control | [11] 95 % of control | [12] 104 % of control

CCOC(=O)C(C(=O)OCC)c1cccc(Cl)c1
inactive: dose: 50.0 mg/kg/injection, schedule: Q01DX001 (ip), vehicle: saline 106 % of control | [8] 109 % of control | [9] 103 % of control | dose: 400.0 mg/kg/injection, schedule: Q01DX001 (ip), vehicle: saline 103 % of control

CC1CCC2C(C1)N(C(C)C)OC2(C)C (configuration not stated)
inactive: [13] 104 % of control | dose: 100.0 mg/kg/injection, schedule: Q01DX009 (ip), vehicle: saline with Tween-80 98 % of control | [14] 108 % of control | [15] 102 % of control

CCCCCCCc1cc2ccccc2c2c(N)nc(N)nc12
inactive: dose: 12.0 mg/kg/injection, schedule: Q04DX003 (ip), vehicle: Klucel (hydroxypropylcellulose) (HPC) 105 % of control | dose: 25.0 mg/kg/injection, schedule: Q04DX003 (ip), vehicle: Klucel (hydroxypropylcellulose) (HPC) 93 % of control | dose: 50.0 mg/kg/injection, schedule: Q04DX003 (ip), vehicle: Klucel (hydroxypropylcellulose) (HPC) 98 % of control | dose: 100.0 mg/kg/injection, schedule: Q01DX001 (ip), vehicle: Klucel (hydroxypropylcellulose) (HPC) 90 % of control | [10] 107 % of control | dose: 200.0 mg/kg/injection, schedule: Q01DX001 (ip), vehicle: Klucel (hydroxypropylcellulose) (HPC) 96 % of control

Cc1cc(C)c(NC(=O)NCCCl)cc1C
inactive: [10] 104 % of control | [11] 89 % of control | [12] 93 % of control

CCN(CC)Cc1cc(Nc2cc(C)nc(Nc3ccc(Cl)c(Cl)c3)n2)ccc1OC
inactive: [6] 98 % of control | dose: 12.5 mg/kg/injection, schedule: Q04DX003 (ip), vehicle: saline with Tween-80 98 % of control | [7] 105 % of control | [16] 100 % of control | [13] 110 % of control | [17] 101 % of control

CCNC(=O)Oc1cccc(NC(=O)OC)c1
inactive: [14] 104 % of control | [15] 93 % of control | dose: 400.0 mg/kg/injection, schedule: Q04DX003 (ip), vehicle: saline with Tween-80 95 % of control

CC(=O)Nc1ccc(CCc2nc(N)nc(Cl)c2-c2ccc(Cl)cc2)cc1
inactive: dose: 75.0 mg/kg/injection, schedule: Q01DX001 (ip), vehicle: saline 92 % of control | dose: 150.0 mg/kg/injection, schedule: Q01DX001 (ip), vehicle: saline 87 % of control | dose: 300.0 mg/kg/injection, schedule: Q01DX001 (ip), vehicle: saline 90 % of control

Cn1c(=S)sc2ccccc21
inactive: [16] 97 % of control | [17] 97 % of control | [10] 107 % of control
